Consider nine compounds from paper PMC8151276, “An Integrated Approach toward NanoBRET Tracers for Analysis of GPCR Ligand Engagement” (Molecules, 2021).

Holding throughout (assay type): binding
One test deals with T1, SMO (Homo sapiens, UniProt Q99835).
T1 construct: purchased Promega (in-house HiBiT-GPCR construct library, NanoBRET)
In words: NanoBRET screen HiBiT-SMO in HEK293. The procedure: (§1) Each tracer candidate was screened across the entire library of HiBiT-GPCR constructs using NanoBRET as the detection modality. As depicted in Figure 4A, the specificity of interactions was evaluated through decrease in BRET due to competitive displacement of a bound tracer by excess parental compound. Each tracer was analyzed for binding to each HiBiT-GPCR fusion in the absence and in the presence of competing parental compound. Briefly, HEK293 cells were transfected with HiBiT-GPCR constructs diluted into promoterless DNA to reduce expression and maximize translocation to the cell surface. Each tracer candidate was then screened at concentrations of 1 μM and 0.1 μM across cells expressing these fusions. Cells were treated for 1.5 h with tracer either alone or in the presence of 20 μM competing parental compound (i.e., control). BRET was measured upon addition of purified LgBiT and subsequent complementation with HiBiT genetically fused to a GPCR. The specificity of interactions was assessed through a decrease in BRET signal due to competitive displacement of the bound tracer. To further gauge the robustness of these interactions, the fold response over the control (i.e., BRETtracer/BRETcontrol) was calculated. We chose a 1.5-fold response, which translates to ≥7-fold signal over noise as the minimal threshold required to score an interaction as positive. […]. Below we highlight the screening results obtained for our exemplary fluorescent tracers based on Clozapine, Amitriptyline and AZD1283.
(§2) HiBiT-GPCR DNA constructs were diluted in 10 mM Tris pH 8 to a final concentration of 0.01 μg/μL, arrayed in 96-well plates and stored at −20 °C. For transfection, HEK293 cells were suspended in Opti-MEM (without phenol red) supplemented with 2% fetal bovine serum (Seradigm) and 100 units/mL penicillin–streptomycin (Gibco) at a final concentration of 220,000 cells/mL and dispensed into white 96-well plates at 90 μL/well. Subsequent transfections and screens were carried using an Agilent Bravo Automated Liquid Handling Platform. First, the 96-well HiBiT DNA arrays were diluted 25-fold in Opti-MEM (without serum or phenol red) to a final concentration of 0.0004 μg/μL and 20 μL of the diluted DNAs were transferred into new 96-well plates. Next, promoterless carrier DNA (1 μg/μL) was diluted 25-fold (0.04 μg/μL) and then dispensed into the diluted arrays at 20 μL/well. Following brief mixing, Viafect transfection reagent (Promega) diluted 16-fold into Opti-MEM was dispensed into the plates at 40 μL/well. After mixing by pipetting, plates were incubated for 10 min on the pipetting station deck. The DNA-transfection reagent complexes were then added to plates containing cells. To facilitate the screen, 10 μL of DNA-transfection reagent complexes were added in duplicates to the top 4 and bottom 4 rows, resulting in two identical 48-well arrays per plate. Plates with transfected cells were incubated for 18–20 h at 37 °C/5% CO2. A screen of each tracer across the entire library using two different concentrations requires duplicate plates of transfected cells. Depending on the number of tracers being screened, transfections can be scaled up using the same ratios. The next day, for each tracer, four 20× screening solutions in tracer dilution buffer (Promega) were prepared: two duplicates at final concentration of 20 μM and two duplicates at a final concentration of 2 μM. A competing unmodified compound was added to one of each duplicate at a final concentration of 400 μM. The four resulting solutions were diluted 4-fold in Opti-MEM without serum or phenol red to generate 5× solutions (5 µM and 0.5 µM tracer +/− 100 μM competing compound). To screen the library, a BioTek MultiFlo FX liquid dispenser was used to dispense 22.5 µL of tracer solution to the top 4 rows and 22.5 µL tracer + competing compound solution to the 4 bottom rows. Plates were briefly mixed on an orbital shaker and incubated for 1.5 h at room temperature. […]
(In BRET a luciferase serves as donor, and the signal depends on an acceptor being close.)

The target in a further test is T2, GABBR2 (Homo sapiens, UniProt O75899).
T2 construct: purchased Promega (in-house HiBiT-GPCR construct library, NanoBRET)
T2 sequence (O75899 42-941): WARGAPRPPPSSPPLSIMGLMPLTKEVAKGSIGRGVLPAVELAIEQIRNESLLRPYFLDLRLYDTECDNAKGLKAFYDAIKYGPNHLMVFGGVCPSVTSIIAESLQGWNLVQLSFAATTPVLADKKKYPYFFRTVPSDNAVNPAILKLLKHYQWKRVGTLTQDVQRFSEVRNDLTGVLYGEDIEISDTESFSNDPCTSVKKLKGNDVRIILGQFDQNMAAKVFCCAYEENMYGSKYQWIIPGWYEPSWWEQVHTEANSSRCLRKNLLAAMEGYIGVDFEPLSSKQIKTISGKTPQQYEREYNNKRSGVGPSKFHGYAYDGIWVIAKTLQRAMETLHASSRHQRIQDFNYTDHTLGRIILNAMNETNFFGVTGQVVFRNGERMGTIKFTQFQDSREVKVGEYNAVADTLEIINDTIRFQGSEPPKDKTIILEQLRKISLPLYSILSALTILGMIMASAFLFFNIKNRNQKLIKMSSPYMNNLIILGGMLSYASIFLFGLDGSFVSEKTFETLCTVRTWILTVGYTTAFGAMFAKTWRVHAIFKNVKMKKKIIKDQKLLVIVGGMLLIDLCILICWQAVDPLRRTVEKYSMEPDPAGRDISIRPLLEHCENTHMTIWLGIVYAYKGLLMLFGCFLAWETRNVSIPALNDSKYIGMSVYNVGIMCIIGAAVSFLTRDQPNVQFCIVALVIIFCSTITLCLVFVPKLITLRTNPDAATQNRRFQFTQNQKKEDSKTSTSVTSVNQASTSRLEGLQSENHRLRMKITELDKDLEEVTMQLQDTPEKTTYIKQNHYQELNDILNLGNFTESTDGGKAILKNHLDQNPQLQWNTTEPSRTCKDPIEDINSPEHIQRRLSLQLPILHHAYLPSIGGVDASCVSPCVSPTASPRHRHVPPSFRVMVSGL
In words: NanoBRET screen HiBiT-GABBR2 in HEK293. Here is the method: as §1, §2

A further test concerns the target T3, SSTR2 (Homo sapiens, UniProt P30874).
T3 construct: purchased Promega (in-house HiBiT-GPCR construct library, NanoBRET)
In words: NanoBRET screen HiBiT-SSTR2 in HEK293. The procedure: as §1, §2

The target of another test is T4, SSTR4 (Homo sapiens, UniProt P31391).
T4 construct: purchased Promega (in-house HiBiT-GPCR construct library, NanoBRET)
In words: NanoBRET screen HiBiT-SSTR4 in HEK293. Here is the method: as §1, §2

T4 sequence (P31391 whole entry): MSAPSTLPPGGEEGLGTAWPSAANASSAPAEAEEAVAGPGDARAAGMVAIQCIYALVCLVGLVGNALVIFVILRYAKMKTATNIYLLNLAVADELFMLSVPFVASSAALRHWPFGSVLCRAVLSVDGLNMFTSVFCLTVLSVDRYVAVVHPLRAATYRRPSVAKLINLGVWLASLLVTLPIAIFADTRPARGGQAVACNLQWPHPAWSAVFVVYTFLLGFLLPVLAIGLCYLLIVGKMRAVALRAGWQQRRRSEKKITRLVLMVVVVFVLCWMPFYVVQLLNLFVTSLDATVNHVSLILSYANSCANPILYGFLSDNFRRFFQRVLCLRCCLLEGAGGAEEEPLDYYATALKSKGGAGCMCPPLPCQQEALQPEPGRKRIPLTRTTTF
T3 sequence (P30874 whole entry): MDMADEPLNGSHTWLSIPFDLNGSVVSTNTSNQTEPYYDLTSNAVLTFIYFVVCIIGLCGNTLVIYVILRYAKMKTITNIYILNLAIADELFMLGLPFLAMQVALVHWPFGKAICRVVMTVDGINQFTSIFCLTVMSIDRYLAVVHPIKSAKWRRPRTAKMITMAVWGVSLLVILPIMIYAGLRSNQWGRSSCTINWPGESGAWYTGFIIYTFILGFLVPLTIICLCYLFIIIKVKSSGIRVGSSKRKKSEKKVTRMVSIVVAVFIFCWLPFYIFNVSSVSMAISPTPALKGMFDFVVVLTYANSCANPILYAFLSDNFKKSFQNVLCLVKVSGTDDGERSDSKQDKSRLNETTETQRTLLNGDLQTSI
T1 sequence (Q99835 28-787): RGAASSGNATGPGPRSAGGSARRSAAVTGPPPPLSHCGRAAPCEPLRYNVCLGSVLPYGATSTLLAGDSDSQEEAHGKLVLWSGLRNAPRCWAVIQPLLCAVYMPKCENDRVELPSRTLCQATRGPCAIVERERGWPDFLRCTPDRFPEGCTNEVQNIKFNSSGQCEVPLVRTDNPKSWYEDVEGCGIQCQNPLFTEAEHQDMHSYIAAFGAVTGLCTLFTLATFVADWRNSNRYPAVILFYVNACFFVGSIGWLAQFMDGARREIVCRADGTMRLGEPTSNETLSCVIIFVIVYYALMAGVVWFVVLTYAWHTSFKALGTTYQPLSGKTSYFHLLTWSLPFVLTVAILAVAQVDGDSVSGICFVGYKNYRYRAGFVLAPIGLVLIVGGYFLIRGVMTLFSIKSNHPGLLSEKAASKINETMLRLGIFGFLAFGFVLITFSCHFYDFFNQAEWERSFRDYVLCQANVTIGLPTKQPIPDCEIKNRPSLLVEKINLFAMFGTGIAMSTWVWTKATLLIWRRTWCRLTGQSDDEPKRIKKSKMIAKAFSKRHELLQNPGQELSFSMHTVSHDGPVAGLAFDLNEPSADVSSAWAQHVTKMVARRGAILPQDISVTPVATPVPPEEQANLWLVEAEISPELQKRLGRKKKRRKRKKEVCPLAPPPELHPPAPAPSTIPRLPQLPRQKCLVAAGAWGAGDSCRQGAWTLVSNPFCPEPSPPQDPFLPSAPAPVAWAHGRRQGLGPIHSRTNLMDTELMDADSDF

Consider `CC(C)N(CC[C@H](c1ccccc1)c1cc(CCNC(=O)CCOCCOCCOCCOCCNC(=O)CCc2ccc3n2[B-](F)(F)[N+]2=C(c4ccc[nH]4)C=CC2=C3)ccc1O)C(C)C` [Tolterodine-2-NB590], for which the “NanoBRET Fold Response” value is 0.73 at SMO (SMO, tracer 0.1μM); 0.83 at SMO (SMO, tracer 1μM); 1.15 at GABBR2 (GABBR2, tracer 0.1μM); 1.02 on GABBR2 (GABBR2, tracer 1μM); 1.04 at SSTR2 (SSTR2, tracer 0.1μM); 1.00 at SSTR2 (SSTR2, tracer 1μM). In addition, the “NanoBRET Fold Response” value turned out to be 0.97 on SSTR4 (SSTR4, tracer 0.1μM) and 1.14 on SSTR4 (SSTR4, tracer 1μM).
With `CN1CCN(C2=Nc3cc(Cl)ccc3N(CC(=O)NCCOCCOCCOCCOCCNC(=O)CCc3ccc4n3[B-](F)(F)[N+]3=C(c5ccc[nH]5)C=CC3=C4)c3ccccc32)CC1` [Clozapine-c-2-NB590], the “NanoBRET Fold Response” value turned out to be 0.97 on SMO (SMO, 0.1μM tracer); 1.09 on SMO (SMO, 1μM tracer); 0.99 on GABBR2 (GABBR2, 0.1μM tracer); 1.02 at GABBR2 (GABBR2, 1μM tracer); 0.97 at SSTR2 (SSTR2, 0.1μM tracer); 1.00 at SSTR2 (SSTR2, 1μM tracer). The “NanoBRET Fold Response” value at SSTR4 (SSTR4, 0.1μM tracer) is reported as 1.03; at SSTR4 (SSTR4, 1μM tracer), 1.00.
As for `N#CN=C(NCCCOc1cccc(CN2CCCCC2)c1)NCCNC(=O)CCOCCOCCOCCOCCNC(=O)CCc1ccc2n1[B-](F)(F)[N+]1=C(c3ccc[nH]3)C=CC1=C2` [Aminopotentidine-2-NB590], the “NanoBRET Fold Response” value was 1.03 at SMO (SMO, tracer 0.1μM); 0.91 on SMO (SMO, tracer 1μM); 1.03 at GABBR2 (GABBR2, tracer 0.1μM); 0.94 on GABBR2 (GABBR2, tracer 1μM); 0.98 on SSTR2 (SSTR2, tracer 0.1μM); 1.02 on SSTR2 (SSTR2, tracer 1μM). Moreover, the “NanoBRET Fold Response” value on SSTR4 (SSTR4, tracer 0.1μM) is listed as 1.08; at SSTR4 (SSTR4, tracer 1μM) it was 1.00.
Consider `COc1ccc2c(n1)c(CCNC(C)=O)cn2CCNC(=O)CCc1ccc2n1[B-](F)(F)[N+]1=C(c3ccc[nH]3)C=CC1=C2` [Azamelatonin-1-NB590], for which the “NanoBRET Fold Response” value on SMO (0.1μM tracer) was 0.82; on SMO (1μM tracer), 1.37; on GABBR2 (0.1μM tracer) it was 0.96; on GABBR2 (1μM tracer), 0.96; on SSTR2 (0.1μM tracer), 1.07; on SSTR2 (1μM tracer), 0.88. Also, the “NanoBRET Fold Response” value at SSTR4 (0.1μM tracer) is 0.93; at SSTR4 (1μM tracer) it was 1.01.
In the case of `CC(C)N(CC[C@H](c1ccccc1)c1cc(CCNC(=O)c2ccc(CNC(=O)CCc3ccc4n3[B-](F)(F)[N+]3=C(c5ccc[nH]5)C=CC3=C4)cc2)ccc1O)C(C)C` [Tolterodine-BZ-NB590], the “NanoBRET Fold Response” value is on record as 0.93 at SMO (SMO, tracer 0.1μM); 0.94 at SMO (SMO, tracer 1μM); 0.87 at GABBR2 (GABBR2, tracer 0.1μM); 0.71 on GABBR2 (GABBR2, tracer 1μM); 0.95 at SSTR2 (SSTR2, tracer 0.1μM); 1.00 at SSTR2 (SSTR2, tracer 1μM). The “NanoBRET Fold Response” value is given as 0.99 at SSTR4 (SSTR4, tracer 0.1μM) and 0.93 on SSTR4 (SSTR4, tracer 1μM).
As to `O=C(CCc1ccc2n1[B-](F)(F)[N+]1=C(c3ccc[nH]3)C=CC1=C2)NCCOCCOCCNC(=O)OCCOCCN1CCN(C2=Nc3ccccc3Sc3ccccc32)CC1` [Quetiapine-a-2-NB590], the “NanoBRET Fold Response” value is 0.94 on SMO (SMO, tracer 0.1μM); 0.96 on SMO (SMO, tracer 1μM); 1.06 on GABBR2 (GABBR2, tracer 0.1μM); 0.91 on GABBR2 (GABBR2, tracer 1μM); 1.03 on SSTR2 (SSTR2, tracer 0.1μM); 0.77 on SSTR2 (SSTR2, tracer 1μM). Also, the “NanoBRET Fold Response” value on SSTR4 (SSTR4, tracer 0.1μM) stood at 0.99; at SSTR4 (SSTR4, tracer 1μM), 0.83.
Consider `Cc1cc2c(s1)Nc1ccccc1N=C2N1CCN(CCCNC(=O)CCOCCOCCOCCOCCNC(=O)CCc2ccc3n2[B-](F)(F)[N+]2=C(c4ccc[nH]4)C=CC2=C3)CC1` [Olanzapine-a-2-NB590], for which the “NanoBRET Fold Response” value on SMO (SMO, tracer 0.1μM) was determined as 1.12; at SMO (SMO, tracer 1μM), 0.82; on GABBR2 (GABBR2, tracer 0.1μM) it was 1.01; at GABBR2 (GABBR2, tracer 1μM), 0.82; on SSTR2 (SSTR2, tracer 0.1μM) it was 1.03; on SSTR2 (SSTR2, tracer 1μM) it was 0.96. In addition, the “NanoBRET Fold Response” value stood at 0.98 at SSTR4 (SSTR4, tracer 0.1μM) and 1.04 on SSTR4 (SSTR4, tracer 1μM).
Regarding `CN(C)CCC=C1c2ccccc2CCc2ccc(C(=O)NCCNC(=O)CCOCCOCCOCCOCCNC(=O)CCc3ccc4n3[B-](F)(F)[N+]3=C(c5ccc[nH]5)C=CC3=C4)cc21` [Amitriptyline-b-2-NB590], the “NanoBRET Fold Response” value amounted to 0.97 at SMO (tracer at 1μM); 1.13 at GABBR2 (tracer at 0.1μM, listed as amitriptyline-b-2-NB590); 1.30 on GABBR2 (tracer at 1μM, listed as amitriptyline-b-2-NB590); 0.99 on SSTR2 (tracer at 1μM); 1.16 at SSTR4 (tracer at 0.1μM); 0.99 at SSTR4 (tracer at 1μM).
On to `O=C(CCOCCOCCOCCOCCNC(=O)CCc1ccc2n1[B-](F)(F)[N+]1=C(c3ccc[nH]3)C=CC1=C2)NCCCN1CCN(C2=Nc3cc(Cl)ccc3Nc3ccccc32)CC1` [Clozapine-a-2-NB590], for which the “NanoBRET Fold Response” value at SMO (SMO, 0.1μM tracer) worked out at 1.00; on SMO (SMO, 1μM tracer) it was 0.64; at GABBR2 (GABBR2, 0.1μM tracer) it was 1.07; on GABBR2 (GABBR2, 1μM tracer) it was 0.80; at SSTR2 (SSTR2, 0.1μM tracer) it was 1.03; on SSTR2 (SSTR2, 1μM tracer) it was 1.07. The “NanoBRET Fold Response” value on SSTR4 (SSTR4, 0.1μM tracer) is given as 1.11; at SSTR4 (SSTR4, 1μM tracer), 1.20.
